What was measured:
[1] = test system: CD4+ T cells (ConA-stimulated PBMC); experiment: ConA mitogen-induced CD4+ T cell proliferation in CFSE-stained PBMC (PBMC responder/suppression assay); assay type: cell-based, canine; details: for effect of co-added inhibitor on WJ-MSC EV mediated suppression of CD4+ T cell division: 10 μM TGF-βRI inhibitor, 50 μM ZM241385, 0.1 μg/ml neutralizing antibody
Procedure: Serum-free culture medium from canine Wharton's Jelly mesenchymal stem cells (WJ-MSC: CD44^+, CD90^+, CD34^−, CD45^−, MHCII^−, n=6 cell lines) was collected after 48 hours, and extracellular vesicles (WJ-EV) were isolated by differential centrifugation. WJ-EV output was assessed using single vesicle nanoparticle tracking analysis (NTA). CFSE-stained peripheral blood mononuclear cells (PBMC) were collected from healthy dogs (n=8), exposed to Concanavalin A mitogen (ConA; 5 μg/ml) and co-incubated with WJ-MSC (1:10) across transwell membrane (0.4 μm pore size) or with WJ-MSC EV (1:10^4)±10 μM SB431542 (TGFβR1 inhibitor) or TGF-β neutralizing (e.g., inhibiting) antibody (Ab) for 72 hours. Analysis of CFSE fluorescence using FlowJo (v7.6.5) yielded % CD4^+ cells that had undergone division (T-cell proliferation).
PBMC responder assay: Twelve healthy adult purpose-bread Beagle dogs (5 neutered males, 7 spayed females) housed at the Laboratory Animal Medicine department at the Cummings School of Veterinary Medicine at Tufts University served as blood donors under an approved protocol. […] or WJ-MSC were tested in triplicate against a minimum of 3 different PBMC donor cell samples (see Figure legends for ‘n’ of each experiment). Healthy status was confirmed by clinical examination, and hematological and serum biochemical testing within six months of blood sampling. All dogs were fasted for 12 hours prior to peripheral blood sampling. Peripheral blood samples were taken via jugular venipuncture using a 21 gauge needle, and blood was immediately placed into an EDTA collection tube and rotated 1-2 times gently. Blood was diluted 1:1 with cold PBS or centrifuged (1300×g, 10 min) prior to dilution 1:2 in PBS, followed by density-gradient centrifugation using Ficoll-Paque (density 1.077; GE Healthcare Life Sciences) to harvest peripheral blood mononuclear cells (PBMC). PBMC were washed in RPMI (Life Technologies) supplemented with 10% heat-inactivated fetal bovine serum (Gibco), […] (Life Technologies), 100 μM β-mercaptoethanol (Sigma-Aldrich), 10,000 U/ml penicillin-streptomycin, 2 mM L-glutamine (Life Technologies), and 2.2 mg/mL of sodium bicarbonate (Thermo Fisher Scientific) (complete RPMI, ‘cRPMI’). For mitogen induced lymphocytes proliferation assays, PBMC were suspended in 1 ml cRPMI and 0.5 μof 10 mM carboxyfluorescein succinimidyl ester (CFSE, Thermo Fisher Scientific) and were incubated (10 min). For initial characterization of WJ-MSC effects on responder PBMC, PBMC were plated on a 24-well plate on the top of a 0.4 μm Transwell (Corning) across from the WJ-MSC in a 10:1 ratio (PBMC:MSC) in a total volume of 1 ml medium (n=3 technical replicates/sample). All plates were incubated at 37° C. in the dark for 72 hours prior to analysis.
Dose-responses of TV MSC-EV: To investigate the dose response of PBMC to WJ-MSC EV, the […] were plated on a 96-well plate in cRPMI with addition of 1 mM ATP, with or without 5 μg/ml Concanavalin A (ConA, Sigma-Aldrich). Responder PBMC were incubated with WJ-MSC EV in a total volume of 200 μL medium (n=3 technical replicates per sample). PBMC were incubated with WJ-MSC EV in a 1:10^2, 1:10^3, or 1:10^4 (PBMC:EV) ratio. After 72 hours of incubation, the PBMC were collected and surface stained for CD4 (rat anti-canine CD4-Alexa 647, clone YKIX302.9, AbD Serotec). Cells were stained for 30 minutes, washed twice with cold PBS and 5% FBS, and resuspended in 200 μl PBS and 5% FBS with 5 μl 7AAD (Becton Dickinson) for analysis by flow cytometry (Accuri C6, Becton Dickinson). The effect of WJ-MSC or WJ-MSC EV on CD4-positive (CD4^+) T cell (i.e., T helper cell) proliferation (percentage of cells proliferating, number of divisions for proliferating cells) was measured by evaluating CFSE fluorescence utilizing the FlowJo® proliferation platform (FlowJo, V10, Ashland, Oreg.) after gating on the viable CD4^+ lymphocyte population. […]

WJ-MSC = experiment: EV (exosome) output from WJ-MSC under GW4869, by nanoparticle tracking analysis; assay type: cell-based, canine
Procedure: Particle size distribution using nanoparticle tracking analysis (NTA): Samples were analyzed using a NanoSight N300 unit (Malvern) equipped with a 488 nm (blue) laser module and Nanoparticle Tracking Analysis 3.0 software. All samples were diluted in sterile PBS to a concentration of 1-10×10^8 particles/mL for analysis. Specific NTA settings were optimized for each sample, with fixed settings of temperature (23° C.), screen gain (1.0), infusion flow rate (5 μL/min), and camera level set at 12-14 depending on sample characteristics. Five videos were recorded for each sample (30-120 s video length) with all settings remaining constant within each sample source to minimize variation. […] The NTA unit was periodically evaluated for accuracy of size determination using polystyrene beads of known size (100 and 200 nm).
EV depletion and enzymatic digestion experiments: EV were isolated as described, resuspended in 5 ml PBS, and divided into 5 fractions of 1 ml each. […] The EV sediment was resuspended in PBS and particle numbers were quantified using nanoparticle tracking analysis (NTA) as described supra. […] The retentate was resuspended in 1 ml PBS, and particle content was evaluated by NTA. […] As well, WJ-MSC EV, EV (10^4:1 PBMC) from conditioned medium of non-MSC fibroblasts (canine left ventricular cardiac fibroblasts) were evaluated for suppression of PBMC.

O=C(/C=C/c1ccc(/C=C/C(=O)Nc2ccc(C3=NCCN3)cc2)cc1)Nc1ccc(C2=NCCN2)cc1 [GW4869]
T cell division with WJ-MSC pre-treated with EV-release inhibitor ([1]; WJ-MSC pre-treated 48 hours at 6 μM, then across Transwell from PBMC with ConA, untreated WJ-MSC 28.2±1.4%): 51.7±13.5%
release of WJ-MSC-EV (particles released in 48 hours) (WJ-MSC; increasing concentrations, n=3 WJ-MSC lines): decreased
concentration giving maximal suppression of exosome output without unacceptable loss of viability (WJ-MSC; increasing doses applied to WJ-MSC, 48 hours): 5 to 10 µM

soluble TGF-β1: recombinant human TGF-β1 (R&D Systems)
suppression of mitogen driven T cell division by exogenous TGF-β ([1]; 5 ng/ml added to ConA stimulated PBMC): not
suppression of mitogen driven T cell division by exogenous TGF-β ([1]; 10 ng/ml added to ConA stimulated PBMC): suppressed
suppression of mitogen driven T cell division by exogenous TGF-β ([1]; 50 ng/ml added to ConA stimulated PBMC): suppressed
% CD4+ division (CD4+ cells that had undergone division) ([1]; Example 2, ConA 5 μg/ml, 72 h, WJ-MSC 1:10 across transwell, WJ-EV 1:10^4, ConA alone 60±17%): 21±10%

IFN-γ: interferon-gamma used to pre-condition WJ-MSC
further suppression by WJ-MSC or WJ-MSC EV after pre-conditioning of WJ-MSC ([1]; WJ-MSC pretreated with 500 ng IFN-γ for 48 hours): not statistically significant

Nc1nc(NCCc2ccc(O)cc2)nc2nc(-c3ccco3)nn12 [ZM241385]
effect of co-added inhibitor on WJ-MSC EV mediated suppression of CD4+ T cell division ([1]; 72 h): significantly reduced

Triton-X
effect of pre-treating WJ-MSC EV on their suppression of CD4+ T cell division ([1]; 0.1% Triton-X, 2 μg/ml RNAse A, proteinase K 30 min 37°C, heparinase 0.006 U/ml 3 hours, 10^4 EV:1 PBMC): completely abrogated

NC(=O)c1ccc(-c2nc(-c3ccc4c(c3)OCO4)c(-c3ccccn3)[nH]2)cc1 [SB431542]
effect of co-added inhibitor on WJ-MSC EV mediated suppression of CD4+ T cell division ([1]; 72 h): significantly reduced
% CD4+ division ([1]; Example 2, 10 μM SB431542 added to ConA+WJ-EV, ConA+WJ-EV alone 23±13%): 52±17%
